According to article PMC6495379, “Reiterative Synthesis by the Ribosome and Recognition of the N-Terminal Formyl Group by Biosynthetic Machinery Contribute to Evolutionary Conservation of the Length of Antibiotic Microcin C Peptide Precursor” (mBio, 2019):
* marks the point of attachment. For = O=C*

Key:
E. coli MccB = assay: In vitro adenylation of MccA peptides by MccB, HPLC read-out; format: biochemical, Escherichia coli; conditions: 500 μM peptide, 5 μM MccB, 28°C, 20 min, HPLC 260 nm; for Yield of adenylated peptide (unformylated peptides): ATP
Description: In previous work, it was shown that E. coli MccB is able to modify a wide range of substrates in vivo and in vitro, including MBP protein with attached A7 peptide ([14]). To test MccB activity on elongated substrates encoded by pA11 and pA15, we incubated purified MccB with ATP and chemically synthesized A11 and A15 peptides and measured adenylated peptide yields by high-pressure liquid chromatography (HPLC) (Fig. 6). […] We next repeated the experiment with N-terminally formylated versions of each peptide that correspond to the products of ribosomal synthesis. […] We conclude that under our conditions, the presence of the formyl group on the N-terminal methionine residue selectively amplified the yields of MccA heptapeptide adenylation compared to adenylation yields of longer peptides A11 and A15.
FIG 6 In vitro adenylation of MccA peptides of different lengths by MccB. HPLC traces (260 nm) showing product formation after incubation of equal molar amounts of A7 (MRTGNAN), A11 (MGGGMRTGNAN), and A15 (MASTAGGGMRTGNAN) peptides and their N-terminally formylated variant peptides (marked with the f prefix) with MccB in the reaction buffer for 20 min at 28°C.
For adenylation efficiency measurements, 500 μM peptide was incubated with 5 μM MccB at 28°C for 20 min, and then the reaction was quenched with 0,1% TFA and analyzed using C18 reversed-phase chromatography (Symmetry C18, 5 μm, 4.6 mm by 150 mm; Waters). A 0% to 15% linear gradient of acetonitrile in 0.1% TFA was applied for elution. The identities of the compounds in the chromatographic fractions were confirmed by MALDI-TOF MS.

some strains of E. coli = conditions: cited from earlier work
Source text: Thus, the minimal set of three genes in an mcc cluster, encoding the precursor peptide, the adenylating enzyme, and the export pump protein, should be sufficient for production of McC-like antibacterial compounds. Bioinformatics searches reveal that genes coding for MccB-like proteins can be found in various bacteria that are phylogenetically distant from E. coli ([10]).

[1] = formylated versus unformylated peptide

MRTGNAN [A7, 7-amino-acid McC precursor peptide MRTGNAN, chemically synthesized]
Increase in adenylated product yield on N-terminal formylation, compared to the unformylated peptide (E. coli MccB; [1]): approximately 8 fold
Increase in adenylated product yield on N-terminal formylation, compared to the unformylated peptide (E. coli MccB; formylated versus unformylated peptide, listed as heptapeptide MccA): ~10 fold
Yield of adenylated peptide (unformylated peptides) (E. coli MccB): comparable yields

MASTAGGGMRTGNAN [A15, 15-amino-acid MccA-based peptide […]]
Decrease in adenylated product yield on N-terminal formylation, compared to the unformylated peptide (E. coli MccB; [1]): ~3 fold
Yield of adenylated peptide (unformylated peptides) (E. coli MccB): comparable yields

Microcin C (For-MRTGNAN-{adenylate (N-P bond, aminopropyl on phosphoramidate)}) [McC, heptapeptide adenylate antibiotic, formylated, with aminopropyl on the phosphoramidate]
Increase of toxicity of McC by the aminopropyl moiety (some strains of E. coli): 4- to 10 fold

MGGGMRTGNAN [A11, 11-amino-acid MccA-based peptide […]]
Increase in adenylated product yield on N-terminal formylation, compared to the unformylated peptide (E. coli MccB; [1]): ~2 fold
Yield of adenylated peptide (unformylated peptides) (E. coli MccB): comparable yields
